Results: patent US7923465B2, “Cannabinoid receptor ligands, pharmaceutical compositions containing them, and process for their preparation” (priority 2005, dated 2011)
Read-outs that look alike come from different tables or passages of the source.

Columns and labels:
[1] = target: CB1 (Rattus norvegicus, UniProt P20272); test: Rat CB1 receptor binding using brain membrane, [3H]SR141716A displacement (Protocol I); parameters: CB1 receptor present in a rat brain membrane preparation; from tissue; host or cells: rat brain membrane; inhibition: dose or concentration left out as unconfirmed; details: for inhibition: 1 h
[2] = target: T1, hCB1 (Homo sapiens, UniProt P21554); test: Antagonism of CB1 receptors expressed in CHO cells, cAMP assay against CP 55,940 (Protocol IX.1); format: cell-based; parameters: expressed in transfected cells; host or cells: CHO (h-CB1/CHO, G418-selected); details: h-CB1/CHO cells, cAMP, vs 30 nM CP 55,940; for inhibition at 10 µM: read-out: hCB1 Antagonism
[3] = target: T1, hCB1; test: Agonism of CB1 receptors expressed in CHO cells, forskolin cAMP assay (Protocol IX.2); format: cell-based; parameters: expressed in transfected cells; host or cells: CHO (h-CB1/CHO, G418-selected); details: for activation at 10 µM: CHO
Procedure, shortened: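 CHO cells stably expressing hCB1 stimulated with forskolin in Krebs buffer with 0.1% FAF BSA and 1 mM IBMX. Lysed cells' cAMP measured by chemiluminescence; EC50 from nonlinear regression of dose-response curves.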

[4] = target: hCB2 (Homo sapiens, UniProt P34972); test: Agonism of CB2 receptors expressed in CHO cells, forskolin cAMP assay (Protocol IX.2); format: cell-based; parameters: expressed in transfected cells; host or cells: CHO (h-CB2/CHO, G418-selected); details: cAMP
Procedure, shortened: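 CHO cells expressing h-CB2 were treated with compound in Krebs buffer with 0.1% FAF BSA and 1 mM IBMX, plus 10 uM forskolin, for 30 minutes at room temperature. cAMP in lysates was measured by chemiluminescence. EC50 was derived by nonlinear regression of dose–response curves, with CP 55,940 at 10 μM as reference for CB2.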

[5] = at 10 uM, h-CB1/CHO cells, cAMP
[6] = rat brain membrane, [3H]SR141716A displacement, read-out: % Displacement Protocol I
[7] = hCB2 Agonism IC50, h-CB2/CHO cells
[8] = bare number, no unit or concentration given

CB1, sequence (P20272 whole entry): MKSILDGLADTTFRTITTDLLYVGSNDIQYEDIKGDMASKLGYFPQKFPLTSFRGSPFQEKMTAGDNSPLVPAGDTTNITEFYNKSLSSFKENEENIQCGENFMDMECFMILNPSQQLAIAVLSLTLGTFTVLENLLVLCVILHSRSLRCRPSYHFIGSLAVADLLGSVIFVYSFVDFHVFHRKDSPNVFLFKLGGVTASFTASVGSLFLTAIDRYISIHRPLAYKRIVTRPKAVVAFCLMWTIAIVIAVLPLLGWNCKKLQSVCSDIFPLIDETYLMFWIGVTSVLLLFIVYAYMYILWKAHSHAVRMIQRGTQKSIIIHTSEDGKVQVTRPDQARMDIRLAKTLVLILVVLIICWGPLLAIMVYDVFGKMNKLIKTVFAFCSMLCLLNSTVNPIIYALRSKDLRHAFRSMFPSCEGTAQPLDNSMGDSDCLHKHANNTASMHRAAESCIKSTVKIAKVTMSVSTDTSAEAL
hCB2, sequence (P34972 whole entry): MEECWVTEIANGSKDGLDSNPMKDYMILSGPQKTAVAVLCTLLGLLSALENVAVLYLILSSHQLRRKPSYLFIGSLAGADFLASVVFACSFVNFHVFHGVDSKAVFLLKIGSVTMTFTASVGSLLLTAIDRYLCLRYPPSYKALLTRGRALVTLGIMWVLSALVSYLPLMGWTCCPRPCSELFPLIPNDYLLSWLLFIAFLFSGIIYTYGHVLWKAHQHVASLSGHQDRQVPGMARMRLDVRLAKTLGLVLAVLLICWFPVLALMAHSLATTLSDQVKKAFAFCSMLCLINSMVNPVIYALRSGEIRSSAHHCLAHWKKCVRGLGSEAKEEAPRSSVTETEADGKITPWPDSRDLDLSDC
T1 sequence (P21554 whole entry): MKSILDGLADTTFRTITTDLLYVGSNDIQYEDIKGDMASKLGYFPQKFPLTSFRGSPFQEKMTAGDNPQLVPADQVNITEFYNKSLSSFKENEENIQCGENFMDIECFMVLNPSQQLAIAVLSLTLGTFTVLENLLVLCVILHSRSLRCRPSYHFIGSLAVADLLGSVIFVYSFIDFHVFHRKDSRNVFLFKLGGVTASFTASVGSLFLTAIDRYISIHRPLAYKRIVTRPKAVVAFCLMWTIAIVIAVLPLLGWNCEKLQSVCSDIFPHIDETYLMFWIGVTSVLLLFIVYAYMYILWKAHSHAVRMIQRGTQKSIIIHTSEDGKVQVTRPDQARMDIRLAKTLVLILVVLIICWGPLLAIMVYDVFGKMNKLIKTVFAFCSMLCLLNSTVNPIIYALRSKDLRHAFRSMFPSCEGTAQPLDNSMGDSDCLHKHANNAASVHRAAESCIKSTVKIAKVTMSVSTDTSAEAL

| SMILES | % Displacement Protocol I ([1]; rat brain membrane, [3H]SR141716A displacement) [%] | hCB1 Antagonism ([2]; at 10 uM) [% at] | hCB1 Agonism [3, 5] [% at] | inhibition [1, 6] [%] | IC50 [4, 7] [nM] | inhibition at 10 µM ([2]; at 10 uM) [%] | melting point [°C] | activation at 10 µM [3, 5] [%] | inhibition ([1]; read-out: % Displacement Protocol I, rat brain membrane, [3H]SR141716A displacement) [%] | IC50 ([4]; h-CB2/CHO cells, read-out: hCB2 Agonism IC50) [nM] | hCB1 Agonism [3, 8] | inhibition at 1 µM ([2]; at 1 uM) [%] |
| --- | --- | --- | --- | --- | --- | --- | --- | --- | --- | --- | --- | --- |
| O=C(NN1CCCCC1)c1nn(-c2ccc(Cl)cc2)c2c1C1CC3CC(C1)CC2C3 [Example 140, N(7)-Piperidino-5-(4′-chlorophenyl)-5,6-diazatetracyclo[7.3.1.1^3,11.0^4,8]tetradeca-4(8)-6-diene-7-carboxamide] | 50.4 | 19.31 | 48.88 |  |  |  |  |  |  |  |  |  |
| CN(NC(=O)c1nn(-c2ccc(Cl)cc2)c2c1C1CCC2C1)C1CCCCC1 (centres unmarked) [Example 213, N(3)-[(N-Cyclohexyl-N-methyl)amino]-1-(4-chlorophenyl)-4,5,6,7-tetrahydro-1H-4,7-methano-indazole-3-carboxamide] |  |  |  | 48.5 | 12.7 | 0 | 62 | 0 |  |  |  |  |
| O=C(NCc1ccccc1Cl)c1nn(-c2ccc(Cl)cc2)c2c1C1CCC2C1 (centres unmarked) [Example 221, N(3)-(2-Chlorobenzyl)-1-(4-chlorophenyl)-4,5,6,7-tetrahydro-1H-4,7-methano-indazole-3-carboxamide] |  |  |  |  |  | 0 | 119 to 122 | 0 | 68.6 | 36.4 |  |  |
| O=C(NCc1ccc(Cl)cc1Cl)c1nn(-c2ccc(Cl)cc2Cl)c2c1C1CCC2C1 (centres unmarked) [Example 251, N(3)-(2,4-Dichlorobenzyl)-1-(2,4-dichlorophenyl)-4,5,6,7-tetrahydro-1H-4,7-methano-indazole-3-carboxamide] |  |  |  | 42.3 | 40.2 | 0 | 57 to 59 | 37 |  |  |  |  |
| O=C(NNc1ccccc1Cl)c1nn(-c2ccc(Cl)cc2Cl)c2c1C1CCC2C1 (centres unmarked) [Example 257, N(3)-[(2-Chlorophenyl)amino]-1-(2,4-dichlorophenyl)-4,5,6,7-tetrahydro-1H-4,7-methano-indazole-3-carboxamide] |  |  |  | 73.5 | 3.7 |  | 180 to 183 |  |  |  | 0 |  |
| O=C(NNc1ccc(Cl)cc1Cl)c1nn(-c2ccc(Cl)cc2Cl)c2c1C1CCC2C1 (centres unmarked) [Example 260, N(3)-[(2,4-Dichlorophenyl)amino]-1-(2,4-dichlorophenyl)-4,5,6,7-tetrahydro-1H-4,7-methano-indazole-3-carboxamide] |  |  |  | 84.4 | 4.1 |  |  |  |  |  | 0 |  |
| O=C(NNc1ccccc1Br)c1nn(-c2ccc(Cl)cc2Cl)c2c1C1CCC2C1 (centres unmarked) [Example 263, N(3)-[(2-Bromophenyl)amino]-1-(2,4-dichlorophenyl)-4,5,6,7-tetrahydro-1H-4,7-methano-indazole-3-carboxamide] |  |  |  | 69.1 | 2.5 |  | 159 | 16.2 |  |  |  | 72.1 |
| O=C(NC1CCCCC1)c1nn(-c2ccc(Br)cc2)c2c1C1CCC2C1 (centres unmarked) [Example 275, N(3)-Cyclohexyl-1-(4-bromophenyl)-4,5,6,7-tetrahydro-1H-4,7-methano-indazole-3-carboxamide] |  |  |  | 38.8 | 4.49 | 0 | 164 | 16.4 |  |  |  |  |
